Laboratory results: US20090298902A1, “PESTICIDE COMPOSITIONS FOR COMBATING ARTHROPOD PESTS, SNAILS AND NEMATODES” (priority 2006, published 2009)

System: workers of the eastern subterranean termite, Reticulitermes flavipes
Test: Test example 4: soil incorporation bioassay with compound P5a formulations
Assay type: in vivo
Conditions: 24 h, 1 DAT, read-out: Mean cumulative % mortality at days after treatment (DAT)
Method: Bioassays were conducted in 60×15 mm Petri dishes with a 1% agar layer for moisture and 15 termite workers per dish. Granular formulations were incorporated into the Princeton sandy loam soil by hand shaking and mixing with use of a commercial jar roller. After incorporation, water was added to field capacity, and the soil was rolled again. The soil was allowed to sit at field capacity overnight. The soil was then air dried for 24 hours prior to introduction into the test dishes. Conventional suspension concentrate of fipronil was used as a standard, and untreated soil used as a control. Test dishes were maintained at approximately 26° C. and 85% RH. Dishes were observed daily for 13 days for mortality. The concentration of active ingredient was 0.0004875% (w/w) in trench.
Test example 4 was performed similar to test example 1, using formulations containing compound P5a. Comparison of a superabsorber formulation of compound P5 to a DC formulation of compound P5 for bioactivity against workers of the eastern subterranean termite, Reticulitermes flavipes, via soil (Princeton sandy loam) incorporation;

`CCN/C(=N\Nc1c(Cl)cc(C(F)(F)F)cc1Cl)C1(C)CC1(Cl)Cl` (centres unmarked) [Compound P5a] was tested, and the mortality at 10 ppm (Rate 10 ppm) was 100% and the mortality at 100 ppm (Rate 100 ppm) was 100%.
